Results as given in patent US4740504A, “Antihyperlipidemic amine boranes” (United States Borax & Chemical Corp., priority 1987, dated 1988).

Columns and labels:
HMG CoA reductase = molecular target: T1, HMG CoA reductase (Mus musculus, UniProt Q01237); assay: Enzyme activity after in vivo dosing: HMG CoA reductase; settings: maximal reduction at 4 mg/kg/day
T1 construct: from tissue
T1 sequence (Q01237 1-887): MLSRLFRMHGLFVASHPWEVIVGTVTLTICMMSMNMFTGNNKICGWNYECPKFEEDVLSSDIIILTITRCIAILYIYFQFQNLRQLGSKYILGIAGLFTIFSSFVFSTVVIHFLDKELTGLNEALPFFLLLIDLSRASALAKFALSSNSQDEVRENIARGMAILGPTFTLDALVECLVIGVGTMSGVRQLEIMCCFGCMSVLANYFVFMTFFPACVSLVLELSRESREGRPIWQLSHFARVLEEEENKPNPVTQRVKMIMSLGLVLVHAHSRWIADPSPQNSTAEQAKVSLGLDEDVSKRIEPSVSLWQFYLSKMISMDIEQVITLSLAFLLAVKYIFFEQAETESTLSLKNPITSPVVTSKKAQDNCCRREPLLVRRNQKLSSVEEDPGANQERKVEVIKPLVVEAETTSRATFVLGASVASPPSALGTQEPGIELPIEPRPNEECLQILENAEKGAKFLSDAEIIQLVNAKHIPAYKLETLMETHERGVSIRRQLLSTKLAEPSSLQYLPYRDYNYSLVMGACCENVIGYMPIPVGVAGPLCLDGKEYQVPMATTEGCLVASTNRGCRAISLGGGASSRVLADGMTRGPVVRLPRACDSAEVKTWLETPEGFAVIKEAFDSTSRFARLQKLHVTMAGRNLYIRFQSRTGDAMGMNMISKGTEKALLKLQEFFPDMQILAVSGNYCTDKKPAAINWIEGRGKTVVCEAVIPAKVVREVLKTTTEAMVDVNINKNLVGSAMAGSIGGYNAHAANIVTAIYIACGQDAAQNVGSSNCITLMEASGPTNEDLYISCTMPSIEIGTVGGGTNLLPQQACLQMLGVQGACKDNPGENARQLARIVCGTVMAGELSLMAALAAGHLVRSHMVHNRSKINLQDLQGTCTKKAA

[1] = system: phosphatidate phosphohydrolase; assay: Enzymatic studies in vitro: phosphatidate phosphohydrolase; type: biochemical; settings: 200 μM
[2] = molecular target: T2, ATP dependent citrate lyase (Mus musculus, UniProt Q91V92); assay: Enzymatic studies in vitro: ATP dependent citrate lyase; type: biochemical; settings: at all concentrations tested
T2 construct: from tissue
T2 sequence (Q91V92 1-1091): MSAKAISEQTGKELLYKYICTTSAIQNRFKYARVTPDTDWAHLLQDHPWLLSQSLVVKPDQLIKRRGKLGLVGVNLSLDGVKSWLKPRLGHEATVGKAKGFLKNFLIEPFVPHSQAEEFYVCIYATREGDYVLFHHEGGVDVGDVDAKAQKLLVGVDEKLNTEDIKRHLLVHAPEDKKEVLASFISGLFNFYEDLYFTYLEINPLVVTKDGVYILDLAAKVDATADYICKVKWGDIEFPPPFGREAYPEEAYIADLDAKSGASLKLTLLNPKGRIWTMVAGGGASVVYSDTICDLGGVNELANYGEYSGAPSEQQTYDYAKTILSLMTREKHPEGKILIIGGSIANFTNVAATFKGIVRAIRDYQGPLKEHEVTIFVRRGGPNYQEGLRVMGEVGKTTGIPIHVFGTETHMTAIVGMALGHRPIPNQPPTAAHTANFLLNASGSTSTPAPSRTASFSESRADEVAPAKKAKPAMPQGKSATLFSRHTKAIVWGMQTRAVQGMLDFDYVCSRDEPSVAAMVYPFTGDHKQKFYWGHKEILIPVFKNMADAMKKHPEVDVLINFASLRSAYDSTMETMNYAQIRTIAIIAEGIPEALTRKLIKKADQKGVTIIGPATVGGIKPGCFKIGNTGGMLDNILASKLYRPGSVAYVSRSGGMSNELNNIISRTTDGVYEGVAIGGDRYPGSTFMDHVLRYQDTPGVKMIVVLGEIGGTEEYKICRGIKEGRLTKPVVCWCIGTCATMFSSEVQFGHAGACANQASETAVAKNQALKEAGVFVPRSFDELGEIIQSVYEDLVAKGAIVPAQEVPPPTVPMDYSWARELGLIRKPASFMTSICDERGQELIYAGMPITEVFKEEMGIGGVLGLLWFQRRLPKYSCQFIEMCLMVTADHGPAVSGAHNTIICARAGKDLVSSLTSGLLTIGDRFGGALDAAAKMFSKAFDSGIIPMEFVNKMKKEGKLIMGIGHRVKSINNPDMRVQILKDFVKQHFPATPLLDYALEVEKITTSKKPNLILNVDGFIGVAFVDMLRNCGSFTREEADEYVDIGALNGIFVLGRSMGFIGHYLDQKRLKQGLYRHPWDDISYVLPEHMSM

acetyl CoA synthetase = molecular target: T3, acetyl CoA synthetase (Mus musculus, UniProt Q9QXG4); assay: Enzyme activity after in vivo dosing: acetyl CoA synthetase; settings: 16 mg/kg/day
T3 construct: from tissue

[3] = system: phosphatidate phosphohydrolase; assay: Enzyme activity after in vivo dosing: phosphatidate phosphohydrolase; settings: 16 mg/kg/day
[4] = system: liver mitochondrial citrate exchange; assay: Enzymatic studies in vitro: liver mitochondrial citrate exchange; type: biochemical; settings: at all concentrations tested
[5] = molecular target: T2, ATP dependent citrate lyase; assay: Enzyme activity after in vivo dosing: ATP dependent citrate lyase; settings: 16 mg/kg/day
fatty acid synthetase = molecular target: T4, fatty acid synthetase (Mus musculus, UniProt P19096); assay: Enzymatic studies in vitro: fatty acid synthetase; type: biochemical
T4 construct: from tissue
T4 sequence (P19096 whole entry): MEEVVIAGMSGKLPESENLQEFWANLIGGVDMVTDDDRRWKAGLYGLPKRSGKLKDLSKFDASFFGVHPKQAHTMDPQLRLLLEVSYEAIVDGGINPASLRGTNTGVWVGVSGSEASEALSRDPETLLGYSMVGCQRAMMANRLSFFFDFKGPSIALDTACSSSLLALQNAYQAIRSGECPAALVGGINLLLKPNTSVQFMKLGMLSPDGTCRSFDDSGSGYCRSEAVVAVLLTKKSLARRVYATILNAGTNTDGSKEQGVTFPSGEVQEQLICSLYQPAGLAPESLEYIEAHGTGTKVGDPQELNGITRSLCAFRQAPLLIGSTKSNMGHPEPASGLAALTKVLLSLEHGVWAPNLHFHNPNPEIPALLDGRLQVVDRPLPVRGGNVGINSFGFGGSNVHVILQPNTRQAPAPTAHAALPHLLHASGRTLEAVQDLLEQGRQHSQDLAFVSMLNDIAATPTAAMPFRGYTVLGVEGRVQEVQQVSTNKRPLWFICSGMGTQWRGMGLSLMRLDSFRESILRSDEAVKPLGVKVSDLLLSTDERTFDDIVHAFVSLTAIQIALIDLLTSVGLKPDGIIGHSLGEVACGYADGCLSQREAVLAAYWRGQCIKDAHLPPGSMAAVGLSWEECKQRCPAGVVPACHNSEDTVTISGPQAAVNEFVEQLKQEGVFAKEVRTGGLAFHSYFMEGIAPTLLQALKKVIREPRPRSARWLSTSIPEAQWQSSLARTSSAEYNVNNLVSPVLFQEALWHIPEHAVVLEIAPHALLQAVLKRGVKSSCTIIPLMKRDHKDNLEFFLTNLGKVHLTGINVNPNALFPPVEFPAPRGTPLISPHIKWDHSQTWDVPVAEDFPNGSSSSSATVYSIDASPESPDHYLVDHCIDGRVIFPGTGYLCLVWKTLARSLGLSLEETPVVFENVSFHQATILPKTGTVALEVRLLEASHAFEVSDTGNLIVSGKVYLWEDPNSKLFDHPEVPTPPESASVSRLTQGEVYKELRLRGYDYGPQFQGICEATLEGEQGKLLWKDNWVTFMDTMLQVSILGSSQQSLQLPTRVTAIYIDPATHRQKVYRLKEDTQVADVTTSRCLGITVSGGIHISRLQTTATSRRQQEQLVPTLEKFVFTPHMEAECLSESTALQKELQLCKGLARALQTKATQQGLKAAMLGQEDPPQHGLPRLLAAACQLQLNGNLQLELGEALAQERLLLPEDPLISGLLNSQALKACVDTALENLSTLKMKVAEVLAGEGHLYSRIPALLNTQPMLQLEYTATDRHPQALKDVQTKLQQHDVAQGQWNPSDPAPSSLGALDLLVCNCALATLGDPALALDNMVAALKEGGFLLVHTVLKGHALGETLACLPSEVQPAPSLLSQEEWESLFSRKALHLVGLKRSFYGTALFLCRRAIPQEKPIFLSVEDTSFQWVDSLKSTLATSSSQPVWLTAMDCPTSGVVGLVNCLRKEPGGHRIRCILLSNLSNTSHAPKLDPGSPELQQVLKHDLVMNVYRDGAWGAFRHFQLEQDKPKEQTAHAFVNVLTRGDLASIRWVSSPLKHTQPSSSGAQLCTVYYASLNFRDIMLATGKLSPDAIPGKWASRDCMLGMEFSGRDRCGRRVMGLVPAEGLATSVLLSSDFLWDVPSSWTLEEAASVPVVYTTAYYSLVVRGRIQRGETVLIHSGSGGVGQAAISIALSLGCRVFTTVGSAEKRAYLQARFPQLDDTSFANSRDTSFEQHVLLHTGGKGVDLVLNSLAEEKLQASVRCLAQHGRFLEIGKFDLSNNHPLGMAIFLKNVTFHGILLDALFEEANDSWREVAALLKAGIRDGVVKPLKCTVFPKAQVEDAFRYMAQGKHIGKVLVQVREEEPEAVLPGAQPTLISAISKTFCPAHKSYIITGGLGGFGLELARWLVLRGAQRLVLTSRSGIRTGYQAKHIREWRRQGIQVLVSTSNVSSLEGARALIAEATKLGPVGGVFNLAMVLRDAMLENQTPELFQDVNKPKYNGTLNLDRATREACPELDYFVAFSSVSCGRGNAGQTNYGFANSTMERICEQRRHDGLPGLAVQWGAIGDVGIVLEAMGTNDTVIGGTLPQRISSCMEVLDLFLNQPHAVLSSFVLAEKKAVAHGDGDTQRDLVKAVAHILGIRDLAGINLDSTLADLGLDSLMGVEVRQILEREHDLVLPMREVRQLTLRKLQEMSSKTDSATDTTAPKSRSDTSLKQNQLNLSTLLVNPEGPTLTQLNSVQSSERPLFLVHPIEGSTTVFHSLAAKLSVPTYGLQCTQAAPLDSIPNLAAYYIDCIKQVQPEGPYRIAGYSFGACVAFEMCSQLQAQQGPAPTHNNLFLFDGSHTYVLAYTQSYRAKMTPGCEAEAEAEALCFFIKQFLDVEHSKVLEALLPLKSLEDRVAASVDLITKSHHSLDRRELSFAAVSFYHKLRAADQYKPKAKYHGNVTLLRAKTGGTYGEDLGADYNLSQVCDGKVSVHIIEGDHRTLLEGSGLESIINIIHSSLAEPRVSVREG

T3 sequence (Q9QXG4 whole entry): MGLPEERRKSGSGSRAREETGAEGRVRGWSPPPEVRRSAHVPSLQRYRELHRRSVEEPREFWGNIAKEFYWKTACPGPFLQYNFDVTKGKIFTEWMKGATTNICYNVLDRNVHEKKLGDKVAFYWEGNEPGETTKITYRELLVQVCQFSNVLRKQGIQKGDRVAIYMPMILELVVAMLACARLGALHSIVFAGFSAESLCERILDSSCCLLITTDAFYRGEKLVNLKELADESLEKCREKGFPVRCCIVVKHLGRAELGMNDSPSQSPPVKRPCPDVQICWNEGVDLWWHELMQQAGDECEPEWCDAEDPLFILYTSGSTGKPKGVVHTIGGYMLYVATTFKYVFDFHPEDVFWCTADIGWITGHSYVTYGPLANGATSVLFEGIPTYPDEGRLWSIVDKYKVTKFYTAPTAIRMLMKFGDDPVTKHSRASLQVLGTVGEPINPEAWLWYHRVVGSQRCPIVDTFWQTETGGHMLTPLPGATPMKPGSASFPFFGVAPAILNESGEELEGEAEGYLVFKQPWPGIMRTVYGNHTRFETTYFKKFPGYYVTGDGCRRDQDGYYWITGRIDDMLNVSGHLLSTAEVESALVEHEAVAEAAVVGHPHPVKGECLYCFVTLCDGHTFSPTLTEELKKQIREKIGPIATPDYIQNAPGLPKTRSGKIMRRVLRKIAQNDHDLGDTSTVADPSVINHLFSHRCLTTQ

Structure (SMILES): [BH3-][N+](C)(C)CCCCCCCCCCCCCCCCCC [I, N-n-Octadecyl-N,N-Dimethylamine Borane]
- reduction of HMG CoA reductase activity (HMG CoA reductase): 34%
- reduction in phosphatidate phosphohydrolase activity [1]: 67%
- reduction of ATP dependent citrate lyase activity [2]: more than 50%
- reduction of acetyl CoA synthetase (acetyl CoA synthetase): 32%
- reduction of phosphatidate phosphohydrolase activity [3]: 40%
- reduction of liver mitochondrial citrate exchange [4]: more than 50%
- reduction of ATP dependent citrate lyase activity [5]: 62%
- effect on fatty acid synthetase activity (fatty acid synthetase): unaffected
